Drawing on patent US8084431B2, “Method for inhibiting activation of macrophages, inhibiting formation of osteoclasts, inhibiting function of osteoclasts, and/or activating osteoblasts” (China Medical University, priority 2008, dated 2011), this text covers inhibition for one compound.

The test system of assay [1] is myelocytes of rats. Description: Formation of osteoclasts from rat myelocytes (RANKL + M-CSF, TRAP stain). The class given is cell-based, Wistar rats. As to conditions: Rattus norvegicus, Osteoclast, 216 h, 10 nM, 9 days. As to the method: Myelocytes were first prepared. Male Wistar rats with the body weight of 250 g to 300 g were used to prepare myelocytes. Under the condition of anaesthesia, the femurs of the rats were taken, and myelocytes were washed out with a phosphate buffer solution. […] After incubation for 9 days, monocytes in the marrow differentiated into osteoclasts. The osteoclasts were stained with a TRAP (tartrate-resistant acid phosphatase) stain reagent (Sigma, Louis, Mo., USA), and the number of the osteoclasts was calculated. Besides the same RANKL and M-CSF as the control group, various concentrations (0, 5, 25, 50, and 100 μM) of kinsenoside or 10 nM of estradiol (Wako, Japan) were added into culture plates, respectively. Then, rat myelocytes were incubated for 9 days, and the situation that the myelocytes differentiated into osteoclasts was observed. The percentage of the inhibition effect of kinsenoside and estradiol on the formation of osteoclasts was calculated with the following formula, and the result is shown in Table 9. Inhibition percentage (%)=(the number of osteoclasts of the control group−the number of osteoclasts of the experimental group)/the number of osteoclasts of the control group×100% In addition to the aforesaid RANKL, kinsenoside, and/or estradiol, the inhibitor of estradiol, Fulvestrant (Sigma, Louis, Mo., USA) (1 nM), was also added into culture plates. Then, rat myelocytes were incubated for 9 days, and the situation that the myelocytes differentiated into osteoclasts was observed. The percentage of the inhibition effect of kinsenoside on the formation of osteoclasts was calculated, and the result is shown in Table 9.

Assay [2] deals with macrophages RAW 264.7. Kind of assay: Formation of osteoclasts from macrophages RAW 264.7 (RANKL, TRAP stain). Format: cell-based. As to conditions: Mus musculus, RAW264.7, 120 h; 10 nM, RANKL 50 ng/ml, 5 days; read-out: inhibition percentage. As to the method:
If macrophages RAW 264.7 are incubated in culture plates containing 50 ng/ml of differentiation inducer, RANKL, they usually differentiate into osteoclasts after 5 days. In Experiment H, various concentrations (0, 10, and 50 μM) of kinsenoside or 10 nM of estradiol were added into culture plates containing macrophages RAW 264.7, respectively, and the macrophages RAW 264.7 were incubated for 5 days. […] The number of osteoclasts was counted, and the inhibition percentage of the formation of osteoclasts was calculated with the following formula, and the result is shown in Table 11. Inhibition percentage=(the number of osteoclasts in the control group−the number of osteoclasts in the experimental group)/the number of osteoclasts in the control group×100%

SMILES strings stand for the structures. Read-outs that look alike come from different tables or passages of the source.

By inhibition is commonly meant the percentage by which the read-out fell short of the control. On to `C[C@]12CC[C@@H]3c4ccc(O)cc4CC[C@H]3[C@@H]1CC[C@@H]2O` [estradiol, reference compound], for which the inhibition at 0.01 µM in assay [1] (with Fulvestrant 1 nM, read-out: inhibition percentage Experimental Group II) is 24 ± 13.5%; in assay [1] (without Fulvestrant, read-out: inhibition percentage Experimental Group I) it was 45.7 ± 10.5%; in assay [2], 61 ± 16%.
